How the values were obtained:
Assay type in all cases: in vivo
Plutella xylostella = Plutella xylostella (Diamond Back Moth) artificial diet MTP test; conditions: 144 h, 200 ppm (concentration in well 18 ppm), L2 larvae, 6 days, larval mortality, growth regulation
Myzus persicae = Myzus persicae (Green Peach Aphid) sunflower leaf disc spray test; conditions: foliar, 144 h, 200 ppm spray on sunflower leaf discs, aphid population of mixed ages, 6 DAT, mortality
Diabrotica balteata = Diabrotica balteata (Corn Root Worm) artificial diet MTP test; conditions: 120 h, 200 ppm (concentration in well 18 ppm), L2 larvae, 5 days, larval mortality, growth regulation
Heliothis virescens = Heliothis virescens (Tobacco Budworm) egg test on artificial diet; conditions: 96 h, 200 ppm (concentration in well 18 ppm), eggs 0-24 h old on artificial diet, 4 days, egg mortality, larval mortality, growth regulation
Tetranychus urticae = Tetranychus urticae (Two-Spotted Spider Mite) bean leaf disc spray test; conditions: foliar, 192 h, 200 ppm spray on bean leaf discs, mite populations of mixed ages, 8 days, egg, larval and adult mortality, read-out: control of Tetranychus urticae
Thrips tabaci = Thrips tabaci (Onion Thrips) sunflower leaf disc spray test; conditions: foliar, 168 h, 200 ppm spray on sunflower leaf discs, population of mixed ages, 7 days, mortality
Spodoptera littoralis = Spodoptera littoralis (Egyptian Cotton Leafworm) cotton leaf disc spray test; conditions: foliar, 72 h, 200 ppm spray on cotton leaf discs, L1 larvae, mortality, feeding behavior, growth regulation 3 DAT

Measured: pest or weed control at 200 ppm

CCc1cc(C(F)(C(F)(F)F)C(F)(F)C(F)(F)F)cc(C)c1NC(=O)c1cccc(NC(=O)c2ccc([N+](=O)[O-])cc2)c1OC (stereo not shown) [A18]
≥ 80%: all assays above

COc1c(NC(=O)c2ccccc2C)cccc1C(=O)Nc1c(Cl)cc(C(F)(C(F)(F)F)C(F)(F)C(F)(F)F)cc1Br (stereo not shown) [B4]
≥ 80%: all assays above

COc1c(NC(=O)c2ccc(SC)cc2)cccc1C(=O)Nc1c(Cl)cc(C(F)(C(F)(F)F)C(F)(F)C(F)(F)F)cc1Br (stereo not shown) [B26]
≥ 80%: all assays above

COc1c(NC(=O)c2ccccc2Br)cccc1C(=O)Nc1c(Cl)cc(C(F)(C(F)(F)F)C(F)(F)C(F)(F)F)cc1Br (stereo not shown) [B36]
≥ 80%: all assays above

COc1c(NC(=O)c2cc(C)nn2C)cccc1C(=O)Nc1c(Cl)cc(C(F)(C(F)(F)F)C(F)(F)C(F)(F)F)cc1Br (stereo not shown) [B42]
≥ 80%: all assays above

COc1c(NC(=O)c2ccncc2Cl)cccc1C(=O)Nc1c(Cl)cc(C(F)(C(F)(F)F)C(F)(F)C(F)(F)F)cc1Br (stereo not shown) [B66]
≥ 80%: all assays above

COc1c(NC(=O)c2ccccc2[N+](=O)[O-])cccc1C(=O)Nc1c(Cl)cc(C(F)(C(F)(F)F)C(F)(F)C(F)(F)F)cc1Br (stereo not shown) [B80]
≥ 80%: all assays above

COc1c(NC(=O)c2ccncc2C)cccc1C(=O)Nc1c(Cl)cc(C(F)(C(F)(F)F)C(F)(F)C(F)(F)F)cc1Br (stereo not shown) [B82]
≥ 80%: all assays above

COc1c(NC(=O)c2ccnc(C)c2Cl)cccc1C(=O)Nc1c(Cl)cc(C(F)(C(F)(F)F)C(F)(F)C(F)(F)F)cc1Br (stereo not shown) [B93]
≥ 80%: all assays above

COc1c(NC(=O)c2cncnc2)cccc1C(=O)Nc1c(Cl)cc(C(F)(C(F)(F)F)C(F)(F)C(F)(F)F)cc1Br (stereo not shown) [B111]
≥ 80%: all assays above

COc1c(NC(=O)c2ccnc(F)c2)cccc1C(=O)Nc1c(Cl)cc(C(F)(C(F)(F)F)C(F)(F)C(F)(F)F)cc1Br (stereo not shown) [B151]
≥ 80%: all assays above

COc1c(NC(=O)c2cc(F)ccc2F)cccc1C(=O)Nc1c(Cl)cc(C(F)(C(F)(F)F)C(F)(F)C(F)(F)F)cc1Br (stereo not shown) [B153]
≥ 80%: all assays above

COc1c(NC(=O)c2ccc(Cl)cc2Cl)cccc1C(=O)Nc1c(Cl)cc(C(F)(C(F)(F)F)C(F)(F)C(F)(F)F)cc1Br (stereo not shown) [B155]
≥ 80%: all assays above

COc1c(NC(=O)c2cccc(Cl)c2C)cccc1C(=O)Nc1c(Cl)cc(C(F)(C(F)(F)F)C(F)(F)C(F)(F)F)cc1Br (stereo not shown) [B156]
≥ 80%: all assays above

COc1c(NC(=O)c2cc(F)cc(F)c2)cccc1C(=O)Nc1c(Cl)cc(C(F)(C(F)(F)F)C(F)(F)C(F)(F)F)cc1Br (stereo not shown) [B168]
≥ 80%: all assays above

COc1c(NC(=O)c2ccc([N+](=O)[O-])c(N)c2)cccc1C(=O)Nc1c(Cl)cc(C(F)(C(F)(F)F)C(F)(F)C(F)(F)F)cc1Br (stereo not shown) [B174]
≥ 80%: all assays above

COc1c(NC(=O)c2ccccc2C)cccc1C(=O)Nc1c(Cl)cc(C(F)(C(F)(F)F)C(F)(F)C(F)(F)F)cc1Cl (stereo not shown) [C4]
≥ 80%: all assays above

COc1c(NC(=O)c2ccccc2Cl)cccc1C(=O)Nc1c(Cl)cc(C(F)(C(F)(F)F)C(F)(F)C(F)(F)F)cc1Cl (stereo not shown) [C5]
≥ 80%: all assays above

COc1c(NC(=O)c2ccc(C#N)cc2)cccc1C(=O)Nc1c(Cl)cc(C(F)(C(F)(F)F)C(F)(F)C(F)(F)F)cc1Cl (stereo not shown) [C6]
≥ 80%: all assays above

From patent US20120295907A1, “INSECTICIDAL COMPOUNDS” (SYNGENTA CROP PROTECTION, LLC, priority 2009, published 2012)
